Source: the NIST ThermoML archive (doi:10.1021/je101361u)

Assay: xn = mol fraction of the nth substance listed
Settings: 101.3 kPa, Liquid, Vibrating tube method

CCOCCOCCOCC [diethylene glycol diethyl ether] + ClCCCl
mass density [kg/m3]
Settings	308.15 K	313.15 K	318.15 K	323.15 K	328.15 K	333.15 K
x2 = 0	–	–	–	877.66	–	–
x2 = 0.0234	–	891.38	886.51	881.62	876.73	871.83
x2 = 0.0504	–	895.82	890.92	886	881.07	876.13
x2 = 0.0751	–	900.01	895.06	890.1	885.15	880.18
x2 = 0.1009	–	904.54	899.56	894.58	889.59	884.59
x2 = 0.1504	–	913.47	908.43	903.37	898.31	893.23
x2 = 0.2	–	923.09	917.97	912.84	907.7	902.54
x2 = 0.2546	–	934.27	929.05	923.83	918.61	913.36
x2 = 0.2999	–	944.04	938.75	933.46	928.16	922.86
x2 = 0.35	–	955.6	950.21	944.83	939.44	934.03
x2 = 0.4006	–	968.06	962.59	957.11	951.61	946.09
x2 = 0.4502	–	981.1	975.52	969.94	964.34	958.72
x2 = 0.5002	1000.88	995.21	989.52	983.83	978.12	972.39
x2 = 0.5499	1016.02	1010.23	1004.42	998.59	992.77	986.94
x2 = 0.6	1032.44	1026.51	1020.6	1014.67	1008.71	1002.74
x2 = 0.65	1050.11	1044.07	1038	1031.92	1025.84	1019.73
x2 = 0.6999	1069.3	1063.11	1056.9	1050.67	1044.44	1038.18
x2 = 0.7492	1089.67	1083.34	1077	1070.63	1064.24	1057.81
x2 = 0.8	1112.94	1106.44	1099.91	1093.36	1086.78	1080.17
x2 = 0.85	1137.96	1131.28	1124.57	1117.84	1111.08	1104.27
x2 = 0.9	1165.64	1158.75	1151.82	1144.87	1137.9	1130.88
x2 = 0.95	1196.36	1189.24	1182.08	1174.86	1167.69	1160.44
x2 = 0.975	1213.1	1205.85	1198.56	1191.23	1183.9	1176.53
